In PubChem BioAssay (NCI):
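96-well plates; 48 h exposure; 5 concentrations. Endpoints by linear interpolation between flanking doses. Not reached: highest tested concentration assigned. GI50 marks 50% less growth. TGI marks complete inhibition of growth.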

What follows are molecules tested on NCI-H226 lung (assay: NCI-60 cell line screen, 48 h).

Row | Compound | TGI [µM]
1 | COC1OC(C)C(NC(=O)OCC(Cl)(Cl)Cl)C2OC(C)(C)OC12 (stereo not drawn) | > 100

The molecules below were run on NCI-H23 lung (assay: NCI-60 cell line screen, 48 h).

Row | Compound | GI50 [nM] | TGI [µM]
2 | CNCc1cccc2c1OCCOCCOCCN(C)S(=O)(=O)c1ccc(cc1)-c1cnc(N)c(n1)C(=O)N2 | 2470 | 27.9
3 | CN(C)c1ccc(/C=C(\NC(=O)c2ccccc2)C(=O)NC(CC(=O)O)C(=O)O)cc1 (stereo not drawn) | – | > 100
4 | COC(=O)[C@]1(C)CCC[C@@]2(C)C1CC[C@]13C=C(C(C)C)[C@H](CC21)CC3(Cl)C#N (stereo partly drawn) | – | > 100
5 | COc1ccc2c(c1)c(-c1nc(-c3c[nH]c4ncccc34)cs1)cn2CCCN1CCOCC1 | 2680 | 8.75
6 | COC1OC(C)C(NC(=O)OCC(Cl)(Cl)Cl)C2OC(C)(C)OC12 (stereo not drawn) | – | > 100

Each molecule was assayed on NCI-H460 lung (assay: NCI-60 cell line screen, 48 h).

Row | Compound | GI50 [nM] | TGI [µM]
7 | CNCc1cccc2c1OCCOCCOCCN(C)S(=O)(=O)c1ccc(cc1)-c1cnc(N)c(n1)C(=O)N2 | 868 | 2.95
8 | CN(C)c1ccc(/C=C(\NC(=O)c2ccccc2)C(=O)NC(CC(=O)O)C(=O)O)cc1 (stereo not drawn) | – | > 100
9 | COC(=O)[C@]1(C)CCC[C@@]2(C)C1CC[C@]13C=C(C(C)C)[C@H](CC21)CC3(Cl)C#N (stereo partly drawn) | – | > 100
10 | COc1ccc2c(c1)c(-c1nc(-c3c[nH]c4ncccc34)cs1)cn2CCCN1CCOCC1 | 2540 | 6.6
11 | COC1OC(C)C(NC(=O)OCC(Cl)(Cl)Cl)C2OC(C)(C)OC12 (stereo not drawn) | – | > 100

What follows are molecules tested on NCI-H522 lung (assay: NCI-60 cell line screen, 48 h).

Row | Compound | GI50 [nM] | TGI [µM]
12 | CNCc1cccc2c1OCCOCCOCCN(C)S(=O)(=O)c1ccc(cc1)-c1cnc(N)c(n1)C(=O)N2 | 1760 | 4.94
13 | CN(C)c1ccc(/C=C(\NC(=O)c2ccccc2)C(=O)NC(CC(=O)O)C(=O)O)cc1 (stereo not drawn) | – | 46.8
14 | COC(=O)[C@]1(C)CCC[C@@]2(C)C1CC[C@]13C=C(C(C)C)[C@H](CC21)CC3(Cl)C#N (stereo partly drawn) | – | > 100
15 | COc1ccc2c(c1)c(-c1nc(-c3c[nH]c4ncccc34)cs1)cn2CCCN1CCOCC1 | 2070 | 6.03
16 | COC1OC(C)C(NC(=O)OCC(Cl)(Cl)Cl)C2OC(C)(C)OC12 (stereo not drawn) | – | > 100

These molecules were tested on NCI/ADR-RES ovarian (assay: NCI-60 cell line screen, 48 h).

Row | Compound | GI50 [µM] | TGI [µM]
17 | CNCc1cccc2c1OCCOCCOCCN(C)S(=O)(=O)c1ccc(cc1)-c1cnc(N)c(n1)C(=O)N2 | 14.3 | 32.6
18 | CN(C)c1ccc(/C=C(\NC(=O)c2ccccc2)C(=O)NC(CC(=O)O)C(=O)O)cc1 (stereo not drawn) | – | > 100
19 | COC(=O)[C@]1(C)CCC[C@@]2(C)C1CC[C@]13C=C(C(C)C)[C@H](CC21)CC3(Cl)C#N (stereo partly drawn) | – | > 100
20 | COc1ccc2c(c1)c(-c1nc(-c3c[nH]c4ncccc34)cs1)cn2CCCN1CCOCC1 | 3.02 | 11.3
21 | COC1OC(C)C(NC(=O)OCC(Cl)(Cl)Cl)C2OC(C)(C)OC12 (stereo not drawn) | – | > 100

Each molecule was assayed on OVCAR-3 ovarian (assay: NCI-60 cell line screen, 48 h).

Row | Compound | GI50 [nM] | TGI [µM]
22 | CNCc1cccc2c1OCCOCCOCCN(C)S(=O)(=O)c1ccc(cc1)-c1cnc(N)c(n1)C(=O)N2 | 1590 | 9.79
23 | CN(C)c1ccc(/C=C(\NC(=O)c2ccccc2)C(=O)NC(CC(=O)O)C(=O)O)cc1 (stereo not drawn) | – | > 100
24 | COC(=O)[C@]1(C)CCC[C@@]2(C)C1CC[C@]13C=C(C(C)C)[C@H](CC21)CC3(Cl)C#N (stereo partly drawn) | – | > 100
25 | COc1ccc2c(c1)c(-c1nc(-c3c[nH]c4ncccc34)cs1)cn2CCCN1CCOCC1 | 2570 | 7.93
26 | COC1OC(C)C(NC(=O)OCC(Cl)(Cl)Cl)C2OC(C)(C)OC12 (stereo not drawn) | – | > 100

What follows are molecules tested on OVCAR-4 ovarian (assay: NCI-60 cell line screen, 48 h).

Row | Compound | TGI [µM] | GI50 [nM]
27 | CN(C)c1ccc(/C=C(\NC(=O)c2ccccc2)C(=O)NC(CC(=O)O)C(=O)O)cc1 (stereo not drawn) | > 100 | –
28 | COC(=O)[C@]1(C)CCC[C@@]2(C)C1CC[C@]13C=C(C(C)C)[C@H](CC21)CC3(Cl)C#N (stereo partly drawn) | > 100 | –
29 | COc1ccc2c(c1)c(-c1nc(-c3c[nH]c4ncccc34)cs1)cn2CCCN1CCOCC1 | 8.27 | 2140
30 | COC1OC(C)C(NC(=O)OCC(Cl)(Cl)Cl)C2OC(C)(C)OC12 (stereo not drawn) | > 100 | –

Each molecule was assayed on OVCAR-5 ovarian (assay: NCI-60 cell line screen, 48 h).

Row | Compound | GI50 [nM] | TGI [µM]
31 | CNCc1cccc2c1OCCOCCOCCN(C)S(=O)(=O)c1ccc(cc1)-c1cnc(N)c(n1)C(=O)N2 | 3390 | 8.57
32 | CN(C)c1ccc(/C=C(\NC(=O)c2ccccc2)C(=O)NC(CC(=O)O)C(=O)O)cc1 (stereo not drawn) | – | > 100
33 | COC(=O)[C@]1(C)CCC[C@@]2(C)C1CC[C@]13C=C(C(C)C)[C@H](CC21)CC3(Cl)C#N (stereo partly drawn) | – | > 100
34 | COc1ccc2c(c1)c(-c1nc(-c3c[nH]c4ncccc34)cs1)cn2CCCN1CCOCC1 | 2600 | 7.91
35 | COC1OC(C)C(NC(=O)OCC(Cl)(Cl)Cl)C2OC(C)(C)OC12 (stereo not drawn) | – | > 100
